Laboratory results as given in patent US20250025443A1, “COMPOUNDS AND METHODS FOR TREATING CORONA VIRUSES” (CLEAR CREEK BIO, INC., priority 2021, published 2025).

Molecular target: SARS-CoV-2 Papain-Like Protease (PLpro) (Severe acute respiratory syndrome coronavirus 2 (2019-nCoV) (SARS-CoV-2), UniProt P0DTD1)
Experiment: biochemical
Conditions: SARS-CoV-2 PLpro enzymatic fluorescence assay; read-out: PLpro IC50

In the case of Cc1cc2cc(C(=O)O)[nH]c2cc1C(=O)NC1(c2cccc3ccccc23)CC1 [Compound 204, 5-Methyl-6-((1-(naphthalen-1-yl)cyclopropyl)carbamoyl)-1H-indole-2-carboxylic acid], the IC50 is reported as 100 to 1000 nM.
In the case of Cc1cc2cc(C(N)=O)[nH]c2cc1C(=O)NC1(c2cccc3ccccc23)CC1 [Compound 205], the IC50 is reported as 100 to 1000 nM.
Compound Cc1cc2cc(CN3CCOCC3)[nH]c2cc1C(=O)N[C@H](C)c1cccc2ccccc12 [Compound 206, (R)-5-Methyl-2-(morpholinomethyl)-N-(1-(naphthalen-1-yl)ethyl)-1H-indole-6-carboxamide] has an IC50 of 1000 to 5000 nM.
Cc1cc2c(cc1C(=O)NC1(c3cccc4ccccc34)CC1)NCC2 [Compound 207, 5-Methyl-N-(1-(naphthalen-1-yl)cyclopropyl)indoline-6-carboxamide] showed an IC50 of 100 to 1000 nM.
For Cc1cc2ccn(C)c2cc1C(=O)N(C)C1(c2cccc3ccccc23)CC1 [Compound 208, N,1,5-Trimethyl-N-(1-(naphthalen-1-yl)cyclopropyl)-1H-indole-6-carboxamide], the IC50 was > 5000 nM.
Work on Cc1ccc(OCCN2CCOCC2)cc1C(=O)NC1(c2cccc3ccccc23)CC1 [Compound 209, 2-Methyl-5-(2-morpholinoethoxy)-N-(1-(naphthalen-1-yl)cyclopropyl)benzamide] yielded an IC50 of 100 to 1000 nM.
Cc1cc2c(cc1C(=O)NC1(c3cccc4ccccc34)CC1)N(C)CC2 [Compound 210, 1,5-Dimethyl-N-(1-(naphthalen-1-yl)cyclopropyl)indoline-6-carboxamide] gave an IC50 of 100 to 1000 nM.
For Cc1ccc(OCCN)cc1C(=O)N(C)C1(c2cccc3ccccc23)CC1 [Compound 211, 5-(2-Aminoethoxy)-N,2-dimethyl-N-(1-(naphthalen-1-yl)cyclopropyl)benzamide], the IC50 was > 5000 nM.
With Cc1cc2c(C)c[nH]c2cc1C(=O)NC1(c2cccc3ccccc23)CC1 [Compound 212, 3,5-Dimethyl-N-(1-(naphthalen-1-yl)cyclopropyl)-1H-indole-6-carboxamide] the IC50 was 100 to 1000 nM.
For Cc1cc2cc(CN3CCOCC3)[nH]c2cc1C(=O)NC1(c2cccc3ccccc23)CC1 [Compound 213, 5-Methyl-2-(morpholinomethyl)-N-(1-(naphthalen-1-yl)cyclopropyl)-1H-indole-6-carboxamide], the IC50 was 1000 to 5000 nM.
For Cc1ccc(OCCN(C)C)cc1C(=O)NC1(c2cccc3ccccc23)CC1 [Compound 214, 5-(2-(Dimethylamino)ethoxy)-2-methyl-N-(1-(naphthalen-1-yl)cyclopropyl)benzamide], the IC50 was < 100 nM.
Cc1ccc(OCCN)cc1C(=O)NC1(c2cccc3ccccc23)CC1 [Compound 215, 5-(2-Aminoethoxy)-2-methyl-N-(1-(naphthalen-1-yl)cyclopropyl)benzamide] was tested, and the IC50 was < 100 nM.
For Cc1cc(I)c(N)cc1C(=O)NC1(c2cccc3ccccc23)CC1 [Compound 216, 5-Amino-4-iodo-2-methyl-N-(1-(naphthalen-1-yl)cyclopropyl)benzamide], the IC50 was 100 to 1000 nM.
Cc1cc(C#Cc2ccccc2)c(N)cc1C(=O)NC1(c2cccc3ccccc23)CC1 [Compound 217, 5-Amino-2-methyl-N-(1-(naphthalen-1-yl)cyclopropyl)-4-(phenylethynyl)benzamide] was tested, and the IC50 was > 5000 nM.
In the case of Cc1cc2ccn(C3CNC3)c2cc1C(=O)NC1(c2cccc3ccccc23)CC1 [Compound 218, 1-(Azetidin-3-yl)-5-methyl-N-(1-(naphthalen-1-yl)cyclopropyl)-1H-indole-6-carboxamide], the IC50 is reported as < 100 nM.
In the case of Cc1ccc(N)cc1C(=O)NC1(c2cccc3ccccc23)CCC1 [Compound 219, 5-Amino-2-methyl-N-(1-(naphthalen-1-yl)cyclobutyl)benzamide], the IC50 is reported as > 5000 nM.
CNCc1cc2cc(C)c(C(=O)NC3(c4cccc5ccccc45)CC3)cc2o1 [Compound 220, 5-Methyl-2-((methylamino)methyl)-N-(1-(naphthalen-1-yl)cyclopropyl)benzofuran-6-carboxamide] was tested, and the IC50 was < 100 nM.
For CNCc1cc2cc(C)c(C(=O)NC3(c4cccc5ccccc45)CC3)cc2[nH]1 [Compound 221], the IC50 was < 100 nM.
CNCCc1cc2cc(C)c(C(=O)NC3(c4cccc5ccccc45)CC3)cc2[nH]1 [Compound 222, 5-Methyl-2-(2-(methylamino)ethyl)-N-(1-(naphthalen-1-yl)cyclopropyl)-1H-indole-6-carboxamide] was tested, and the IC50 was 100 to 1000 nM.
Cc1cc2[nH]ccc2cc1C(=O)NC1(c2cccc3ccccc23)CC1 [Compound 223, 6-Methyl-N-(1-(naphthalen-1-yl)cyclopropyl)-1H-indole-5-carboxamide] was tested, and the IC50 was 100 to 1000 nM.
CON(C)C(=O)c1cc2cc(C)c(C(=O)NC3(c4cccc5ccccc45)CC3)cc2[nH]1 [Compound 225] showed an IC50 of 100 to 1000 nM.
With Cc1cc2cc(-c3ccccc3)[nH]c2cc1C(=O)NC1(c2cccc3ccccc23)CC1 [Compound 226, 5-Methyl-N-(1-(naphthalen-1-yl)cyclopropyl)-2-phenyl-1H-indole-6-carboxamide] the IC50 was > 5000 nM.
Cc1cc2c(cc1C(=O)NC1(c3cccc4ccccc34)CC1)NCCC2 [Compound 227, 6-Methyl-N-(1-(naphthalen-1-yl)cyclopropyl)-1,2,3,4-tetrahydroquinoline-7-carboxamide] showed an IC50 of 100 to 1000 nM.
In the case of Cc1cc2cc(CNCc3ccccc3)[nH]c2cc1C(=O)NC1(c2cccc3ccccc23)CC1 [Compound 229, 2-((Benzylamino)methyl)-5-methyl-N-(1-(naphthalen-1-yl)cyclopropyl)-1H-indole-6-carboxamide], the IC50 is reported as < 100 nM.
With CNCC1Cc2cc(C)c(C(=O)NC3(c4cccc5ccccc45)CC3)cc2N1 (centres unmarked) [Compound 231, 5-Methyl-2-((methylamino)methyl)-N-(1-(naphthalen-1-yl)cyclopropyl)indoline-6-carboxamide] the IC50 was < 100 nM.
For Cc1cc2cc(CN)[nH]c2cc1C(=O)NC1(c2cccc(Br)c2)CC1 [Compound 232, 2-(Aminomethyl)-N-(1-(3-bromophenyl)cyclopropyl)-5-methyl-1H-indole-6-carboxamide], the IC50 was 1000 to 5000 nM.
For CNCCOc1ccc(C)c(C(=O)NC2(c3cccc4ccccc34)CC2)c1 [Compound 233, 2-Methyl-5-(2-(methylamino)ethoxy)-N-(1-(naphthalen-1-yl)cyclopropyl)benzamide], the IC50 was < 100 nM.
Work on Cc1cc2cc(-c3ccccn3)[nH]c2cc1C(=O)NC1(c2cccc3ccccc23)CC1 [Compound 234, 5-Methyl-N-(1-(naphthalen-1-yl)cyclopropyl)-2-(pyridin-2-yl)-1H-indole-6-carboxamide] yielded an IC50 of 100 to 1000 nM.
Compound Cc1cc2cc(CN)oc2cc1C(=O)NC1(c2cccc3ccccc23)CC1 [Compound 236] has an IC50 of 100 to 1000 nM.
For Cc1cc2c(cc1C(=O)NC1(c3cccc4ccccc34)CC1)n(C)c(=O)n2C [Compound 237, 1,3,6-Trimethyl-N-(1-(naphthalen-1-yl)cyclopropyl)-2-oxo-2,3-dihydro-1H-benzo[d]imidazole-5-carboxamide], the IC50 was 1000 to 5000 nM.
Cc1cc2[nH]c(=O)[nH]c2cc1C(=O)NC1(c2cccc3ccccc23)CC1 [Compound 238, 6-Methyl-N-(1-(naphthalen-1-yl)cyclopropyl)-2-oxo-2,3-dihydro-1H-benzo[d]imidazole-5-carboxamide] was tested, and the IC50 was 100 to 1000 nM.
With Cc1cc2ccn(CC3CNC3)c2cc1C(=O)NC1(c2cccc3ccccc23)CC1 [Compound 239, 1-(Azetidin-3-ylmethyl)-5-methyl-N-(1-(naphthalen-1-yl)cyclopropyl)-1H-indole-6-carboxamide] the IC50 was < 100 nM.
COCc1cc2cc(C)c(C(=O)NC3(c4cccc5ccccc45)CC3)cc2[nH]1 [Compound 240, 2-(Methoxymethyl)-5-methyl-N-(1-(naphthalen-1-yl)cyclopropyl)-1H-indole-6-carboxamide] was tested, and the IC50 was 100 to 1000 nM.
For Cc1cc2cc(CN)[nH]c2cc1C(=O)NCc1cccc2ccccc12 [Compound 241, 2-(Aminomethyl)-5-methyl-N-(naphthalen-1-ylmethyl)-1H-indole-6-carboxamide], the IC50 was > 5000 nM.
For Cc1ccc(N)cc1C(=O)NS(=O)(=O)c1cccc2ccccc12 [Compound 242, 5-Amino-2-methyl-N-(naphthalen-1-ylsulfonyl)benzamide], the IC50 was > 5000 nM.
Work on Cc1cc2c(cc1C(=O)NC1(c3cccc4ccccc34)CC1)NC(=O)C2(C)C [Compound 243, 3,3,5-Trimethyl-N-(1-(naphthalen-1-yl)cyclopropyl)-2-oxoindoline-6-carboxamide] yielded an IC50 of 1000 to 5000 nM.
In the case of Cc1cc2cc(CN)[nH]c2cc1C(=O)NC1(c2ccc(-c3ccccc3)cc2)CC1 [Compound 244, N-(1-([1,1′-Biphenyl]-4-yl)cyclopropyl)-2-(aminomethyl)-5-methyl-1H-indole-6-carboxamide], the IC50 is reported as > 5000 nM.
For Cc1cc2sc(CN)nc2cc1C(=O)NC1(c2cccc3ccccc23)CC1 [Compound 245, 2-(Aminomethyl)-6-methyl-N-(1-(naphthalen-1-yl)cyclopropyl)benzo[d]thiazole-5-carboxamide], the IC50 was < 100 nM.
With Cc1cc2cc(CN)[nH]c2cc1C(=O)NC1(c2ccccc2)CC1 [Compound 246, 2-(Aminomethyl)-5-methyl-N-(1-phenylcyclopropyl)-1H-indole-6-carboxamide] the IC50 was > 5000 nM.
Cc1ccc(OCCNCC(F)(F)F)cc1C(=O)NC1(c2cccc3ccccc23)CC1 [Compound 247, 2-Methyl-N-(1-(naphthalen-1-yl)cyclopropyl)-5-(2-((2,2,2-trifluoroethyl)amino)ethoxy)benzamide] was tested, and the IC50 was 100 to 1000 nM.
For Cc1cc2cc(CN)[nH]c2cc1C(=O)NC1(c2ccc3ccccc3c2)CC1 [Compound 248, 2-(Aminomethyl)-5-methyl-N-(1-(naphthalen-2-yl)cyclopropyl)-1H-indole-6-carboxamide], the IC50 was 1000 to 5000 nM.
In the case of Cc1cc2c(cc1C(=O)NC1(c3cccc4ccccc34)CC1)NC(=O)C2 [Compound 249, 5-Methyl-N-(1-(naphthalen-1-yl)cyclopropyl)-2-oxoindoline-6-carboxamide], the IC50 is reported as 100 to 1000 nM.
Work on Cc1ccc(OCCN(C)C)cc1C(=O)NC1(c2ccccc2Br)CC1 [Compound 251, N-(1-(2-Bromophenyl)cyclopropyl)-5-(2-(dimethylamino)ethoxy)-2-methylbenzamide] yielded an IC50 of 100 to 1000 nM.
For Cc1ccc(OCCN(C)C)cc1C(=O)NC1(c2cccc(F)c2)CC1 [Compound 252, 5-(2-(Dimethylamino)ethoxy)-N-(1-(3-fluorophenyl)cyclopropyl)-2-methylbenzamide], the IC50 was > 5000 nM.
